As usually defined, the IC50 is the concentration that gives 50% inhibition.

One series relates to endometriosis lesions. Nature of the series: Endometriosis model in the rat (autologous transplantation). In kind it is in vivo. The source says:
Using intact adult female rats, experimental endometriosis was induced in the autologous transplantation model based on Vernon M. W. and Wilson E. A., 1985 (Fertil Steril. 44(5):684-694). A uterine horn was removed from animals that were exclusively in oestrus, the myometrium was separated from the endometrium and biopsies with dimensions of 4×4 mm were obtained from the endometrial tissue. Two uterine fragments were transplanted onto the inside of the abdominal wall (peritoneum) and two uterine fragments were transplanted onto the mesenterium of the same animal (4 fragments per animal). After 21 days the animals with endometriosis were laparotomized, and the size of the transplants was determined. The animals were treated after laparotomy and then daily in the morning with the stated dosages of the selected claimed substances by subcutaneous administration. Finally, 28 days after the start of treatment (49 days after transplantation), all the animals were laparotomized again and the size of the lesion was measured and was correlated with the size before the start of treatment.

The target of a further series is T1, oestrogen receptor (ER) (Homo sapiens, UniProt P03372).
T1 construct: These MVLN cells express, along with the functional oestrogen receptor (ER), a reporter construct; endogenous in cells; host or cells: MVLN cells (MCF7 derivative carrying a luciferase reporter construct)
T1 sequence (P03372 1-595): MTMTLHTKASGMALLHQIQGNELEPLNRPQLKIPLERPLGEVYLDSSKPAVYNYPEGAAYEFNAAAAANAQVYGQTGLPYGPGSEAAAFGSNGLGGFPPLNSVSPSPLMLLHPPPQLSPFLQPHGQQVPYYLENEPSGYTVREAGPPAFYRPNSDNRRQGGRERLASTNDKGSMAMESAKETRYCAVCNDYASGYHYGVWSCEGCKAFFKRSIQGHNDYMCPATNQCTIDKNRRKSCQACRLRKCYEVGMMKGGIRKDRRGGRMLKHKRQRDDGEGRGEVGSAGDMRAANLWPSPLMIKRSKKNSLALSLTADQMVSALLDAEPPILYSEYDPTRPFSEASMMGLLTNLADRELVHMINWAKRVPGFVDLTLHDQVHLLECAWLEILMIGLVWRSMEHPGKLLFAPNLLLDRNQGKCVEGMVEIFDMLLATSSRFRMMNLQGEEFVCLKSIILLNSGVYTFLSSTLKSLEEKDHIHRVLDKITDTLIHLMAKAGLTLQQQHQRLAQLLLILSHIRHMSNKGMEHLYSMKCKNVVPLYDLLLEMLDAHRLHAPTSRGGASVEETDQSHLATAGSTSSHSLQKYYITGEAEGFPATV
Nature of the series: Anti-oestrogenic action in MVLN cells (inhibition of estradiol-induced luciferase). In kind it is cell-based. Particulars: inhibition of estradiol-induced luciferase signal, value of Ex. 44 is a mean value, read-out: Antioestrogenic action in vitro: MVLN transactivation antagonism IC50. The method in brief: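 Inhibition of estradiol-driven luciferase expression was measured with compounds co-applied alongside oestrogen. Reporter system: MCF7-derived MVLN cells expressing endogenous functional ER and an ER-responsive luciferase construct.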

Molecules are shown by their SMILES. Entries after “also recorded” stand apart in the source; their conditions may differ.

Turning to `CN(CCCCCCC1=C(c2cc(F)cc(F)c2)CCCc2cc(O)ccc21)CCCCS(=O)(=O)CCCC(F)(F)F` [Example 44, 8-(3,5-Difluorophenyl)-9-[6-(methyl{4-[(4,4,4-trifluorobutyl)sulphonyl]butyl}amino)hexyl]-6,7-dihydro-5H-benzo[7]annulen-3-ol], the “peripheral (blood) estradiol level of the treated animals” value with endometriosis lesions (animals of the FIG. 2C experiment (FIG. 2D)) is recorded as “does not lead to an increase in peripheral estradiol level above the physiological range; also recorded: None of the groups treated with example compound 44 in the stated dosages shows levels above or below the naturally occurring estradiol levels”. Besides, in the series with endometriosis lesions (rat, 0.3 mg/kg to 13 mg/kg, three dosages (FIG. 2C)), the “reduction of lesion sizes, independent experiment” value is “significant dose-dependent reduction of lesion sizes; also recorded: all three dosages lead to a significant reduction of the lesion”. Further, the “dosage with significant reduction in sizes of lesions” value in the series with endometriosis lesions (rat, 28 days of treatment, 115 tested 0.1-1 mg/kg, 44 tested 0.3-10 mg/kg) is on record as not below 1 mg/kg. Moreover, the “reduction of lesion size” value in the series with endometriosis lesions (rat, s.c. daily, 4 weeks (FIG. 2A, FIG. 2B)) is “significant dose-dependent reduction of lesion size”. The IC50 at oestrogen receptor (ER) amounted to 5.6 nM.

The values above are taken from US20130252890A1, “6,7-DIHYDRO-5H-BENZO[7]ANNULENE DERIVATIVES, PROCESS FOR PREPARATION THEREOF, PHARMACEUTICAL PREPARATIONS COMPRISING THEM, AND THE USE THEREOF FOR PRODUCTION OF MEDICAMENTS” (BAYER INTELLECTUAL PROPERTY GMBH, priority 2010, published 2013).
